# From patent US20230167088A1, “1-PYRAZINYLPYRAZOLYL-3-OXYALKYL ACIDS AND THEIR DERIVATIVES, AND THEIR USE FOR CONTROL OF UNDESIRED PLANT GROWTH” (BAYER AKTIENGESELLSCHAFT, priority 2020, published 2023)
# Tests used:
# ALOMY [1] = assay: Herbicidal post-emergence action 1a (greenhouse pots, visual rating); type: in vivo, Alopecurus myosuroides; conditions: rated visually about 3 weeks after treatment, 100% = plants have died, 0% = like control plants
# Procedure, shortened: (§1)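 Visual scoring versus untreated plants (100% = plants dead, 0% = as control) followed roughly 3 weeks in the greenhouse after treatment. Plants grown in sandy loam pots had been sprayed on green parts at the one-leaf stage, 2–3 weeks post-sowing, with aqueous WP/EC preparations containing 0.5% additive, 600 l/ha, at 320 and/or 80 g/ha.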
# VERPE [2] = assay: Herbicidal pre-emergence action 2a (greenhouse pots, visual scoring); type: in vivo, Veronica persica; conditions: dosage 320 g/ha, visual scoring after about 3 weeks vs untreated controls
# Procedure, shortened: (§2)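 Pre-emergence soil-surface spray: WP/EC, 0.5% additive, 600 l/ha water, 320 and/or 80 g/ha. Greenhouse ~3 wk. Visual % damage vs untreated (100% = plants dead, 0% = like control).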
# PHBPU [3] = assay: Herbicidal post-emergence action 1a (greenhouse pots, visual rating); type: in vivo, Pharbitis purpurea; conditions: visual rating about 3 weeks after treatment
# Procedure, shortened: as §1
# VERPE [4] = assay: as above; type: in vivo, Veronica persica; conditions: visual rating about 3 weeks after treatment
# Procedure, shortened: as §1
# ABUTH [5] = assay: Herbicidal pre-emergence action 2a (greenhouse pots, visual scoring); type: in vivo, Abutilon theophrasti; conditions: dosage 320 g/ha, visual scoring after about 3 weeks vs untreated controls
# Excerpt: (§3) [table] a) Seeds of monocotyledonous and dicotyledonous weed plants and crop plants are placed in plastic or organic plant pots and covered with soil. The compounds of the invention, formulated in the form of wettable powders (WP) or as emulsion concentrates (EC), are then applied onto the surface of the covering soil as aqueous suspension or emulsion with addition of 0.5% additive at a water application rate of 600 1/ha (converted). After the treatment, the pots are placed in a greenhouse and kept under good growth conditions for the trial plants. After about 3 weeks, the effect of the preparations is scored visually in comparison with untreated controls as percentages. For example, 100% activity=the plants have died, 0% activity=like control plants. Tables B1 to B15 below show the effects of selected compounds of the general formula (I) according to Tables 1 and 2 on various harmful plants and an application rate corresponding to 320 g/ha and/or 80 g/ha, which were obtained by the experimental procedure mentioned above.
# MATIN [6] = assay: Herbicidal post-emergence action 1a (greenhouse pots, visual rating); type: in vivo, Matricaria inodora; conditions: visual rating about 3 weeks after treatment
# Procedure: (§4) [table] a) Seeds of monocotyledonous and dicotyledonous weeds and crop plants are placed in sandy loam in plastic or organic plant pots, covered with soil and cultivated in a greenhouse under controlled growth conditions. 2 to 3 weeks after sowing, the test plants are treated at the one-leaf stage. The compounds of the invention, formulated in the form of wettable powders (WP) or as emulsion concentrates (EC), are then sprayed onto the green parts of the plants as aqueous suspension or emulsion with addition of 0.5% additive at a water application rate of 600 1/ha (converted). After the test plants have been kept in the greenhouse under optimum growth conditions for about 3 weeks, the activity of the preparations is rated visually in comparison to untreated controls. For example, 100% activity=the plants have died, 0% activity=like control plants. Tables A1 to A15 below show the effects of selected compounds of the general formula (I) according to Tables 1 and 2 on various harmful plants and an application rate corresponding to 320 g/ha and/or 80 g/ha, which were obtained by the experimental procedure mentioned above.
# AVEFA [7] = assay: Herbicidal pre-emergence action 2a (greenhouse pots, visual scoring); type: in vivo, Avena fatua; conditions: dosage 320 g/ha, visual scoring after about 3 weeks
# Procedure, shortened: as §2
# ALOMY [8] = assay: as above; type: in vivo, Alopecurus myosuroides; conditions: dosage 320 g/ha, visual scoring after about 3 weeks
# Procedure, shortened: as §2
# AMARE [9] = assay: as above; type: in vivo, Amaranthus retroflexus; conditions: dosage 320 g/ha, visual scoring after about 3 weeks vs untreated controls
# Procedure, shortened: as §2
# MATIN [10] = assay: as above; type: in vivo, Matricaria inodora; conditions: dosage 320 g/ha, visual scoring after about 3 weeks vs untreated controls
# Procedure, shortened: as §2
# SETVI [11] = assay: Herbicidal post-emergence action 1a (greenhouse pots, visual rating); type: in vivo, Setaria viridis; conditions: rated visually about 3 weeks after treatment, 100% = plants have died, 0% = like control plants
# Procedure, shortened: as §1
# ECHCG [12] = assay: as above; type: in vivo, Echinochloa crus-galli; conditions: rated visually about 3 weeks after treatment, 100% = plants have died, 0% = like control plants
# Procedure, shortened: as §1
# LOLRI [13] = assay: Herbicidal pre-emergence action 2a (greenhouse pots, visual scoring); type: in vivo, Lolium rigidum; conditions: dosage 320 g/ha, visual scoring after about 3 weeks vs untreated controls
# Procedure, shortened: as §2
# POLCO [14] = assay: Herbicidal post-emergence action 1a (greenhouse pots, visual rating); type: in vivo, Polygonum convolvulus; conditions: visual rating about 3 weeks after treatment
# Procedure, shortened: as §1
# POLCO [15] = assay: Herbicidal pre-emergence action 2a (greenhouse pots, visual scoring); type: in vivo, Polygonum convolvulus; conditions: dosage 320 g/ha, visual scoring after about 3 weeks vs untreated controls
# Procedure, shortened: as §2
# SETVI [16] = assay: as above; type: in vivo, Setaria viridis; conditions: dosage 320 g/ha, visual scoring after about 3 weeks vs untreated controls
# Procedure, shortened: as §2
# LOLRI [17] = assay: Herbicidal post-emergence action 1a (greenhouse pots, visual rating); type: in vivo, Lolium rigidum; conditions: rated visually about 3 weeks after treatment, 100% = plants have died, 0% = like control plants
# Procedure, shortened: as §1
# AMARE [18] = assay: as above; type: in vivo, Amaranthus retroflexus; conditions: visual rating about 3 weeks after treatment
# Procedure, shortened: as §1
# PHBPU [19] = assay: Herbicidal pre-emergence action 2a (greenhouse pots, visual scoring); type: in vivo, Pharbitis purpurea; conditions: dosage 320 g/ha, visual scoring after about 3 weeks vs untreated controls
# Excerpt: as §3
# AVEFA [20] = assay: Herbicidal post-emergence action 1a (greenhouse pots, visual rating); type: in vivo, Avena fatua; conditions: rated visually about 3 weeks after treatment, 100% = plants have died, 0% = like control plants
# Procedure, shortened: as §1
# ABUTH [21] = assay: as above; type: in vivo, Abutilon theophrasti; conditions: visual rating about 3 weeks after treatment
# Procedure, shortened: as §1
# STEME [22] = assay: as above; type: in vivo, Stellaria media; conditions: Dosage 320 g/ha; rated visually about 3 weeks after treatment; 100% = plants have died, 0% = like control plants
# Procedure: as §4
# AMARE [23] = assay: Herbicidal pre-emergence action 2b (doubly sown, 1280 g/ha); type: in vivo, Amaranthus retroflexus; conditions: doubly sown pots, dosage 1280 g/ha, visual scoring after about 3 weeks
# Procedure, shortened: (§5)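 Compounds were sprayed pre-emergence as wettable powders or emulsion concentrates onto soil covering freshly sown weed seeds, two species per pot. Percent activity was judged by eye roughly 3 weeks later versus untreated plants.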
# ECHCG [24] = assay: as above; type: in vivo, Echinochloa crus-galli; conditions: doubly sown pots, dosage 1280 g/ha, visual scoring after about 3 weeks
# Procedure, shortened: as §5
# MATIN [25] = assay: as above; type: in vivo, Matricaria inodora; conditions: doubly sown pots, dosage 1280 g/ha, visual scoring after about 3 weeks
# Procedure, shortened: as §5
# VIOTR [26] = assay: Herbicidal pre-emergence action 2a (greenhouse pots, visual scoring); type: in vivo, Viola tricolor; conditions: dosage 320 g/ha, visual scoring after about 3 weeks vs untreated controls
# Procedure, shortened: as §2
# POAAN = assay: Herbicidal pre-emergence action 2b (doubly sown, 1280 g/ha); type: in vivo, Poa annua; conditions: doubly sown pots, dosage 1280 g/ha, visual scoring after about 3 weeks
# Procedure, shortened: as §5
# HORMU = assay: Herbicidal post-emergence action 1a (greenhouse pots, visual rating); type: in vivo, Hordeum murinum; conditions: rated visually about 3 weeks after treatment, 100% = plants have died, 0% = like control plants
# Procedure: as §4
# ECHCG [27] = assay: Herbicidal pre-emergence action 2a (greenhouse pots, visual scoring); type: in vivo, Echinochloa crus-galli; conditions: dosage 320 g/ha, visual scoring after about 3 weeks
# Procedure, shortened: as §2
# VIOTR [28] = assay: Herbicidal post-emergence action 1a (greenhouse pots, visual rating); type: in vivo, Viola tricolor; conditions: visual rating about 3 weeks after treatment
# Procedure, shortened: as §1
# STEME [29] = assay: Herbicidal pre-emergence action 2b (doubly sown, 1280 g/ha); type: in vivo, Stellaria media; conditions: doubly sown pots, dosage 1280 g/ha, visual scoring after about 3 weeks
# Procedure, shortened: as §5
# DIGSA = assay: Herbicidal pre-emergence action 2a (greenhouse pots, visual scoring); type: in vivo, Digitaria sanguinalis; conditions: dosage 320 g/ha, visual scoring after about 3 weeks
# Procedure, shortened: as §2
smiles,measurement,setting,value
C[C@@H](Oc1nn(-c2cnccn2)c(-c2cncc(F)c2)c1Cl)C(=O)O [Example I-97],Post-emergence action against ALOMY in %,ALOMY [1]; Dosage 320 g/ha,90%
same,Pre-emergence action against VERPE in %,VERPE [2],100%
same,Post-emergence action against PHBPU in %,PHBPU [3]; dosage 80 g/ha,90%
same,Post-emergence action against PHBPU in %,PHBPU [3]; dosage 320 g/ha,100%
same,Post-emergence action against VERPE in %,VERPE [4]; dosage 80 g/ha,90%
same,Post-emergence action against VERPE in %,VERPE [4]; dosage 320 g/ha,90%
same,Pre-emergence action against ABUTH in %,ABUTH [5],90%
same,Post-emergence action against MATIN in %,MATIN [6]; dosage 80 g/ha,90%
same,Post-emergence action against MATIN in %,MATIN [6]; dosage 320 g/ha,90%
same,Pre-emergence action against AVEFA in %,AVEFA [7],90%
same,Pre-emergence action against ALOMY in %,ALOMY [8],100%
same,Pre-emergence action against AMARE in %,AMARE [9],100%
same,Pre-emergence action against MATIN in %,MATIN [10],100%
same,Post-emergence action against SETVI in %,SETVI [11]; Dosage 80 g/ha,90%
same,Post-emergence action against SETVI in %,SETVI [11]; Dosage 320 g/ha,90%
same,Post-emergence action against ECHCG in %,ECHCG [12]; Dosage 80 g/ha,90%
same,Post-emergence action against ECHCG in %,ECHCG [12]; Dosage 320 g/ha,90%
same,Pre-emergence action against LOLRI in %,LOLRI [13],100%
same,Post-emergence action against POLCO in %,POLCO [14]; dosage 80 g/ha,90%
same,Post-emergence action against POLCO in %,POLCO [14]; dosage 320 g/ha,90%
same,Pre-emergence action against POLCO in %,POLCO [15],90%
same,Pre-emergence action against SETVI in %,SETVI [16],100%
same,Post-emergence action against LOLRI in %,LOLRI [17]; Dosage 80 g/ha,90%
same,Post-emergence action against LOLRI in %,LOLRI [17]; Dosage 320 g/ha,100%
same,Post-emergence action against AMARE in %,AMARE [18]; dosage 80 g/ha,90%
same,Post-emergence action against AMARE in %,AMARE [18]; dosage 320 g/ha,90%
same,Pre-emergence action against PHBPU in %,PHBPU [19],100%
same,Post-emergence action against AVEFA in %,AVEFA [20]; Dosage 320 g/ha,100%
same,Post-emergence action against ABUTH in %,ABUTH [21]; dosage 80 g/ha,90%
same,Post-emergence action against ABUTH in %,ABUTH [21]; dosage 320 g/ha,90%
COC(=O)COc1nn(-c2cnccn2)c(-c2ccnc(F)c2)c1Br [Example I-09],Post-emergence action against STEME in %,STEME [22],80%
same,Pre-emergence action at 1280 g/ha against AMARE in %,AMARE [23],90%
same,Post-emergence action against ALOMY in %,ALOMY [1]; Dosage 80 g/ha,80%
same,Post-emergence action against ALOMY in %,ALOMY [1]; Dosage 320 g/ha,90%
same,Pre-emergence action at 1280 g/ha against ECHCG in %,ECHCG [24],100%
same,Pre-emergence action at 1280 g/ha against MATIN in %,MATIN [25],100%
same,Post-emergence action against VERPE in %,VERPE [4]; dosage 80 g/ha,90%
same,Pre-emergence action against AVEFA in %,AVEFA [7],90%
same,Pre-emergence action against ALOMY in %,ALOMY [8],90%
same,Pre-emergence action against VIOTR in %,VIOTR [26],90%
same,Pre-emergence action against AMARE in %,AMARE [9],100%
same,Pre-emergence action at 1280 g/ha against POAAN in %,POAAN,100%
same,Post-emergence action against ECHCG in %,ECHCG [12]; Dosage 80 g/ha,80%
same,Post-emergence action against ECHCG in %,ECHCG [12]; Dosage 320 g/ha,80%
same,Pre-emergence action against LOLRI in %,LOLRI [13],90%
same,Post-emergence action against POLCO in %,POLCO [14]; dosage 320 g/ha,100%
same,Pre-emergence action against POLCO in %,POLCO [15],100%
same,Pre-emergence action against SETVI in %,SETVI [16],90%
same,Post-emergence action against HORMU in %,HORMU; Dosage 80 g/ha,80%
same,Post-emergence action against HORMU in %,HORMU; Dosage 320 g/ha,90%
same,Post-emergence action against LOLRI in %,LOLRI [17]; Dosage 320 g/ha,90%
same,Pre-emergence action against ECHCG in %,ECHCG [27],100%
same,Post-emergence action against VIOTR in %,VIOTR [28]; dosage 80 g/ha,90%
same,Post-emergence action against VIOTR in %,VIOTR [28]; dosage 320 g/ha,90%
same,Pre-emergence action at 1280 g/ha against STEME in %,STEME [29],100%
same,Post-emergence action against AVEFA in %,AVEFA [20]; Dosage 80 g/ha,90%
same,Post-emergence action against AVEFA in %,AVEFA [20]; Dosage 320 g/ha,90%
same,Pre-emergence action against DIGSA in %,DIGSA,100%
